Target: P. falciparum apicoplast DNA polymerase (Pf-apPOL) (Plasmodium falciparum, UniProt Q8ILY1)
Test: Fluorescence-based high-throughput DNA polymerase assay (molecular beacon), primary screen and dose-response;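 for % inhibition Apol 40': compound concentration given in µM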
Format: biochemical
Conditions: for DNA Pol: 90 min, 10 µM
How it was run: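 Single-point screening used 10 µM compound with 20 nM polymerase, 20 nM hairpin substrate and 6 µM dNTPs for 90 min at 25 °C. Confirmatory titrations (2.5–80 µM) followed fluorescence at three times, and IC50 was derived from a fit including a cooperativity term n.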

Chain of P. falciparum apicoplast DNA polymerase (Pf-apPOL) (Q8ILY1 entry or part of it): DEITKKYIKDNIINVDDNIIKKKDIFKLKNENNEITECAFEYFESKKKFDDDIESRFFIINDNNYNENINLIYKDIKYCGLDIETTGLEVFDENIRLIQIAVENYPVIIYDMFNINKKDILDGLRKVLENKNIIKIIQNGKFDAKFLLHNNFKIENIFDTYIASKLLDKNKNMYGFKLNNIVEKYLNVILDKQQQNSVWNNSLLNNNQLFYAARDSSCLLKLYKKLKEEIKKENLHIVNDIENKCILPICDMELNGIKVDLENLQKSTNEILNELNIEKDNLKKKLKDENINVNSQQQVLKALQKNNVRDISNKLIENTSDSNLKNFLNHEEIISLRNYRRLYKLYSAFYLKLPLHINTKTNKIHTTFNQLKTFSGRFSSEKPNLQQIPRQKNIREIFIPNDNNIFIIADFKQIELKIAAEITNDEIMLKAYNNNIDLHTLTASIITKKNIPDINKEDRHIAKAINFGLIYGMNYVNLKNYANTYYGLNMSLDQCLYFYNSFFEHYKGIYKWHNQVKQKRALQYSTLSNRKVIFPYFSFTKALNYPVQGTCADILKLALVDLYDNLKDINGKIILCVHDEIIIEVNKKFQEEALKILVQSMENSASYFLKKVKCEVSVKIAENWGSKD

Q: Which “DNA Pol” value ('DNA Pol' of the 186 hits list (primary screen value)) does the source give for `Cc1ccc(-n2nnc(C(=O)O)c2-c2ccccn2)c(F)c1` [Molecule 54, Cc1ccc(c(c1)F)n1nnc(c1c1ccccn1)C(=O)O] here?
A: 25

Q: What about the “DNA Pol” value (DNA Pol (primary screen value)) of the same compound?
A: 25

Q: What about the “% inhibition Apo pol 10'” value (DRC-1, concentration 2.5) of the same compound?
A: 7.865%

Q: What about the “% inhibition Apo pol 10'” value (DRC-1, concentration 5) of the same compound?
A: 13.3823%

Q: And the “% inhibition Apo pol 10'” value (DRC-1, concentration 10)?
A: 36.76%

Q: What about the “% inhibition Apo pol 10'” value (DRC-1, concentration 20) of the same compound?
A: 54.7705%

Q: What about the “% inhibition Apo pol 10'” value (DRC-1, concentration 40) of the same compound?
A: 63.8546%

Q: What about the “% inhibition Apo pol 10'” value (DRC-1, concentration 80) of the same compound?
A: 49.8653%

Q: And the “% inhibition Apol 90'” value (DRC-1, concentration 2.5)?
A: 0.06529%

Q: And the “% inhibition Apol 90'” value (DRC-1, concentration 5)?
A: 1.171%

Q: What about the “% inhibition Apol 90'” value (DRC-1, concentration 10) of the same compound?
A: 17.5602%

Q: And the “% inhibition Apol 90'” value (DRC-1, concentration 20)?
A: 37.4412%

Q: What about the “% inhibition Apol 90'” value (DRC-1, concentration 40) of the same compound?
A: 61.51%

Q: And the “% inhibition Apol 90'” value (DRC-1, concentration 80)?
A: 66.8702%

Q: What about the “% inhibition apPOL 180'” value (DRC-1, concentration 2.5) of the same compound?
A: -5.444%

Q: What about the “% inhibition apPOL 180'” value (DRC-1, concentration 5) of the same compound?
A: -7.146%

Q: And the “% inhibition apPOL 180'” value (DRC-1, concentration 10)?
A: 5.348%

Q: And the “% inhibition apPOL 180'” value (DRC-1, concentration 20)?
A: 21.3721%

Q: And the “% inhibition apPOL 180'” value (DRC-1, concentration 40)?
A: 53.298%

Q: What about the “% inhibition apPOL 180'” value (DRC-1, concentration 80) of the same compound?
A: 71.3072%

Q: And the “% inhibition Apo pol 5'” value (DRC-2, concentration 2.5)?
A: 5%

Q: What about the “% inhibition Apo pol 5'” value (DRC-2, concentration 5) of the same compound?
A: 15%

Q: What about the “% inhibition Apo pol 5'” value (DRC-2, concentration 10) of the same compound?
A: 31%

Q: What about the “% inhibition Apo pol 5'” value (DRC-2, concentration 20) of the same compound?
A: 33%

Q: What about the “% inhibition Apo pol 5'” value (DRC-2, concentration 40) of the same compound?
A: 21%

Q: And the “% inhibition Apo pol 5'” value (DRC-2, concentration 80)?
A: -14%

Q: What about the “% inhibition Apol 40'” value (DRC-2, concentration 2.5) of the same compound?
A: 5.55%

Q: And the “% inhibition Apol 40'” value (DRC-2, concentration 5)?
A: 10%

Q: And the “% inhibition Apol 40'” value (DRC-2, concentration 10)?
A: 27%

Q: And the “% inhibition Apol 40'” value (DRC-2, concentration 20)?
A: 42%

Q: And the “% inhibition Apol 40'” value (DRC-2, concentration 40)?
A: 48%

Q: What about the “% inhibition Apol 40'” value (DRC-2, concentration 80) of the same compound?
A: 33%

Q: And the “% inhibition ApPOL 90'” value (DRC-2, concentration 2.5)?
A: 3.47%

Q: And the “% inhibition ApPOL 90'” value (DRC-2, concentration 5)?
A: 6%

Q: What about the “% inhibition ApPOL 90'” value (DRC-2, concentration 10) of the same compound?
A: 22%

Q: And the “% inhibition ApPOL 90'” value (DRC-2, concentration 20)?
A: 39%

Q: And the “% inhibition ApPOL 90'” value (DRC-2, concentration 40)?
A: 52%

Q: What about the “% inhibition ApPOL 90'” value (DRC-2, concentration 80) of the same compound?
A: 45%

Q: What about the “% inhibition apPOL 180'” value (DRC-2, concentration 2.5) of the same compound?
A: 0.3%

Q: And the “% inhibition apPOL 180'” value (DRC-2, concentration 5)?
A: -1.15%

Q: What about the “% inhibition apPOL 180'” value (DRC-2, concentration 10) of the same compound?
A: 13%

Q: What about the “% inhibition apPOL 180'” value (DRC-2, concentration 20) of the same compound?
A: 28%

Q: And the “% inhibition apPOL 180'” value (DRC-2, concentration 40)?
A: 51%

Q: What about the “% inhibition apPOL 180'” value (DRC-2, concentration 80) of the same compound?
A: 55%

Q: How did the “DNA Pol” value ("DNA Pol" of the 186 hits list (screen value)) turn out when `O=C(Cc1cc(=O)[nH]c(SCc2ccccc2)n1)Nc1ccc2c(c1)OCO2` [Molecule 46, O=C(Cc1cc(=O)[nH]c(n1)SCc1ccccc1)Nc1ccc2c(c1)OCO2] was run?
A: 35

Q: And the “% inhibition Apo pol 10'” value (DRC-1, concentration 2.5)?
A: -0.9773%

Q: What about the “% inhibition Apo pol 10'” value (DRC-1, concentration 5) of the same compound?
A: 2.643%

Q: What about the “% inhibition Apo pol 10'” value (DRC-1, concentration 10) of the same compound?
A: 32.2663%

Q: What about the “% inhibition Apo pol 10'” value (DRC-1, concentration 20) of the same compound?
A: 58.1636%

Q: And the “% inhibition Apo pol 10'” value (DRC-1, concentration 40)?
A: 83.7049%

Q: And the “% inhibition Apo pol 10'” value (DRC-1, concentration 80)?
A: 86.7652%

Q: What about the “% inhibition Apol 90'” value (DRC-1, concentration 2.5) of the same compound?
A: -4.834%

Q: And the “% inhibition Apol 90'” value (DRC-1, concentration 5)?
A: -3.621%

Q: And the “% inhibition Apol 90'” value (DRC-1, concentration 10)?
A: 17.8668%

Q: And the “% inhibition Apol 90'” value (DRC-1, concentration 20)?
A: 43.05%

Q: What about the “% inhibition Apol 90'” value (DRC-1, concentration 40) of the same compound?
A: 73.6983%

Q: And the “% inhibition Apol 90'” value (DRC-1, concentration 80)?
A: 82.3218%

Q: And the “% inhibition apPOL 180'” value (DRC-1, concentration 2.5)?
A: -11.1217%

Q: What about the “% inhibition apPOL 180'” value (DRC-1, concentration 5) of the same compound?
A: -9.027%

Q: What about the “% inhibition apPOL 180'” value (DRC-1, concentration 10) of the same compound?
A: 5.286%

Q: What about the “% inhibition apPOL 180'” value (DRC-1, concentration 20) of the same compound?
A: 25.3173%

Q: What about the “% inhibition apPOL 180'” value (DRC-1, concentration 40) of the same compound?
A: 61.8193%

Q: What about the “% inhibition apPOL 180'” value (DRC-1, concentration 80) of the same compound?
A: 77.2818%

Q: What about the “% inhibition Apo pol 5'” value (DRC-2, concentration 2.5) of the same compound?
A: -0.743%

Q: What about the “% inhibition Apo pol 5'” value (DRC-2, concentration 5) of the same compound?
A: -0.197%

Q: And the “% inhibition Apo pol 5'” value (DRC-2, concentration 10)?
A: 23%

Q: And the “% inhibition Apo pol 5'” value (DRC-2, concentration 20)?
A: 29%

Q: What about the “% inhibition Apo pol 5'” value (DRC-2, concentration 40) of the same compound?
A: 27%

Q: And the “% inhibition Apo pol 5'” value (DRC-2, concentration 80)?
A: 20%

Q: And the “% inhibition Apol 40'” value (DRC-2, concentration 2.5)?
A: -1%

Q: What about the “% inhibition Apol 40'” value (DRC-2, concentration 5) of the same compound?
A: 0.92%

Q: What about the “% inhibition Apol 40'” value (DRC-2, concentration 10) of the same compound?
A: 30%

Q: What about the “% inhibition Apol 40'” value (DRC-2, concentration 20) of the same compound?
A: 47%

Q: What about the “% inhibition Apol 40'” value (DRC-2, concentration 40) of the same compound?
A: 55%

Q: What about the “% inhibition Apol 40'” value (DRC-2, concentration 80) of the same compound?
A: 53%

Q: And the “% inhibition ApPOL 90'” value (DRC-2, concentration 2.5)?
A: -1%

Q: And the “% inhibition ApPOL 90'” value (DRC-2, concentration 5)?
A: -0.186%

Q: And the “% inhibition ApPOL 90'” value (DRC-2, concentration 10)?
A: 27%

Q: What about the “% inhibition ApPOL 90'” value (DRC-2, concentration 20) of the same compound?
A: 49%

Q: And the “% inhibition ApPOL 90'” value (DRC-2, concentration 40)?
A: 60%

Q: And the “% inhibition ApPOL 90'” value (DRC-2, concentration 80)?
A: 61%

Q: And the “% inhibition apPOL 180'” value (DRC-2, concentration 2.5)?
A: -5.33%

Q: And the “% inhibition apPOL 180'” value (DRC-2, concentration 5)?
A: -9%

Q: And the “% inhibition apPOL 180'” value (DRC-2, concentration 10)?
A: 17%

Q: And the “% inhibition apPOL 180'” value (DRC-2, concentration 20)?
A: 41%

Q: And the “% inhibition apPOL 180'” value (DRC-2, concentration 40)?
A: 62%

Q: And the “% inhibition apPOL 180'” value (DRC-2, concentration 80)?
A: 67%

Q: And the “DNA Pol” value (primary screen value, DNA Pol)?
A: 35

Source: article PMC9090415, “Discovery of small molecule inhibitors of Plasmodium falciparum apicoplast DNA polymerase” (Journal of Enzyme Inhibition and Medicinal Chemistry, 2022)
